The test system of one data set is Ent. cloacae MA2646. The data set can be described thus: in vitro antibacterial activity, microtitration dilution (MIC), Ent. cloacae MA2646. It counts as cell-based. As to conditions: Enterobacter cloacae, read-out: minimum inhibiting concentration (MIC). From the text: (§1) The in vitro antibacterial activity is obtained when tested by the microtitration dilution method as described in Heifetz, et al., Antimicr. Agents & Chemother. 1974;6:124, which is incorporated herein by reference.
(§2) By use of the above methods, the following minimum inhibiting concentration values (MICs in μg/ml), PD50 's in mg/kg, no effect phototoxicity dose in mg/kg and the cytotoxicity IC50 in μg/mL were obtained for representative enantiomers of the invention and compounds of the prior art as shown in the table.

The subject of data set [1] is Esch. coli Vogel. Description: in vitro antibacterial activity, microtitration dilution (MIC), Esch. coli Vogel. It counts as cell-based. As to conditions: Escherichia coli, read-out: minimum inhibiting concentration (MIC).
Source text: as §1, §2

The test system of another data set is Klebs. pneumoniae MGH-2. Description: in vitro antibacterial activity, microtitration dilution (MIC), Klebs. pneumoniae MGH-2. It counts as cell-based. Conditions: Klebsiella pneumoniae, MGH2, read-out: minimum inhibiting concentration (MIC).
Source text: as §1, §2

The next data set concerns Prot. rettgeri M 1771. The data set can be described thus: in vitro antibacterial activity, microtitration dilution (MIC), Prot. rettgeri M 1771. Conditions: Providencia rettgeri, M1771, read-out: minimum inhibiting concentration (MIC). It counts as cell-based.
Source text: as §1, §2

Data set [2] concerns Pseud. aeruginosa UI-18. The data set can be described thus: in vitro antibacterial activity, microtitration dilution (MIC), Pseud. aeruginosa UI-18. It counts as cell-based. Conditions: Pseudomonas aeruginosa, UI18, read-out: minimum inhibiting concentration (MIC).
Source text: as §1, §2

A further data set deals with Staph. aureus H 228. Description: in vitro antibacterial activity, microtitration dilution (MIC), Staph. aureus H 228. It counts as cell-based. As to conditions: Staphylococcus aureus, H228, read-out: minimum inhibiting concentration (MIC).
Source text: as §1, §2

For the next data set, the system named is Staph. aureus UC-76. Description: in vitro antibacterial activity, microtitration dilution (MIC), Staph. aureus UC-76. It counts as cell-based. As to conditions: Staphylococcus aureus, UC76, read-out: minimum inhibiting concentration (MIC).
Source text: as §1, §2

In another data set the test system is Strep. faecalis MGH-2. The data set can be described thus: in vitro antibacterial activity, microtitration dilution (MIC), Strep. faecalis MGH-2. It counts as cell-based. As to conditions: Enterococcus faecalis, MGH2, read-out: minimum inhibiting concentration (MIC).
Source text: as §1, §2

For data set [3], the system named is Strep. pneumoniae SV-1. Description: in vitro antibacterial activity, microtitration dilution (MIC), Strep. pneumoniae SV-1. As to conditions: Streptococcus pneumoniae, SV1, read-out: minimum inhibiting concentration (MIC). It counts as cell-based.
Source text: as §1, §2

Data set [4] relates to Strep. pyogenes C-203. The data set can be described thus: in vitro antibacterial activity, microtitration dilution (MIC), Strep. pyogenes C-203. It counts as cell-based. Conditions: Streptococcus pyogenes, C203, read-out: minimum inhibiting concentration (MIC).
Source text: as §1, §2

Another data set can be described thus: in vivo. Also on record: species or system mice. As to conditions: mouse, po. How it is done:
The phototoxicity data is obtained using depilated mice. Compound was administered orally each day for four successive days, followed each day by 3 hours of […] radiation. The mice were examined for any positive signs (redness, erythema) relative to control animals. The no effect dose and the 50% effect dose were determined. By use of the above methods, the following minimum inhibiting concentration values (MICs in μg/ml), PD50 's in mg/kg, no effect phototoxicity dose in mg/kg and the cytotoxicity IC50 in μg/mL were obtained for representative enantiomers of the invention and compounds of the prior art as shown in the table.

The nature of data set [5]: cytotoxicity, colony reduction of hamster V-79 cells. As to conditions: 3 hours treatment, colonies counted after 5 days, read-out: cytotoxicity IC50 (Cytotox). It counts as cell-based. How it is done: The cytotoxicity data is obtained using hamster V-79 cells. The cells were suspended in tissue culture medium and grown overnight. Cells were treated with drug for 3 hours, washed free of drug and then replated, and the colonies counted after 5 days. The concentration of drug that reduced colonies by 50% relative to control was recorded.
as §2

In data set [6] the test system is Esch. coli Vogel. Description: median protective dose in mice given lethal systemic infection, Esch. coli. It counts as in vivo. Conditions: Escherichia coli, single dose at time of challenge, route not given, read-out: median protective dose (PD50). How it is done: (§3) The in vivo activity is obtained when the compounds are tested according to the procedure of Miller, et al (Proc. Soc. Exp. Biol. Med. 1944;57:261). The median protective dose (PD50) was determined in mice given lethal systemic infections. Single doses of compound were given at time of challenge.
as §2
(§4) The in vivo data as PD50 's are reported below the line of MICs for the same compound.

For data set [7], the system named is Pseud. aeruginosa UI-18. Description: median protective dose in mice given lethal systemic infection, Pseud. aeruginosa. It counts as in vivo. As to conditions: Pseudomonas aeruginosa, UI18, Pseud. aeruginosa, single dose at time of challenge, route not given, read-out: median protective dose (PD50). As for the experimental part: as §3, §2, §4
Data set [8] has as its system Strep. pneumoniae SV-1. The data set can be described thus: median protective dose in mice given lethal systemic infection, Strep. pneumoniae. It counts as in vivo. Conditions: Streptococcus pneumoniae, SV1, Strep. pneumoniae, single dose at time of challenge, route not given, read-out: median protective dose (PD50). As for the experimental part: as §3, §2, §4
Data set [9] has as its system Strep. pyogenes C-203. Description: median protective dose in mice given lethal systemic infection, Strep. pyogenes. It counts as in vivo. As to conditions: Streptococcus pyogenes, C203, Strep. pyogenes, single dose at time of challenge, route not given, read-out: median protective dose (PD50). How it is done: as §3, §2, §4

Each structure is given as a SMILES string. Values after ≈ are worked out from the molar mass of the structure shown. Where two headings read alike, the source gives them in different places.

The term NOAEL denotes the highest tested level that showed no adverse finding.

As for `CC(C)(N)C1CCN(c2nc3c(cc2F)c(=O)c(C(=O)O)cn3C2CC2)C1` (stereo not drawn) [reference compound], the MIC in the data set on Ent. cloacae MA2646 is 0.1 µg/mL (≈ 0.267 µM); in the data set with Esch. coli Vogel [1] it was 0.1 µg/mL (≈ 0.267 µM); with Klebs. pneumoniae MGH-2 it was 0.2 µg/mL (≈ 0.534 µM); in the data set on Prot. rettgeri M 1771 it was 0.4 µg/mL (≈ 1.07 µM); in the data set with Pseud. aeruginosa UI-18 [2] it was 1.6 µg/mL (≈ 4.27 µM); in the data set with Staph. aureus H 228, 0.05 µg/mL (≈ 0.134 µM). Also, the MIC was determined as 0.013 µg/mL (≈ 0.0347 µM) with Staph. aureus UC-76, 0.05 µg/mL (≈ 0.134 µM) in the data set with Strep. faecalis MGH-2, 0.025 µg/mL (≈ 0.0668 µM) with Strep. pneumoniae SV-1 [3] and 0.025 µg/mL (≈ 0.0668 µM) in the data set with Strep. pyogenes C-203 [4]. Besides, the NOAEL in the data set “in vivo” is 30 mg/kg. The CC50 at 3 h in data set [5] stood at 66 µg/mL (≈ 176 µM).
In the case of `CC(C)(N)[C@@H]1CCN(c2nc3c(cc2F)c(=O)c(C(=O)O)cn3C2CC2)C1` [Example 4], the MIC with Ent. cloacae MA2646 came to 0.1 µg/mL (≈ 0.267 µM); in the data set with Esch. coli Vogel [1] it was 0.05 µg/mL (≈ 0.134 µM); with Klebs. pneumoniae MGH-2 it was 0.2 µg/mL (≈ 0.534 µM); in the data set on Prot. rettgeri M 1771, 0.4 µg/mL (≈ 1.07 µM); in the data set on Pseud. aeruginosa UI-18 [2], 1.6 µg/mL (≈ 4.27 µM); with Staph. aureus H 228, 0.05 µg/mL (≈ 0.134 µM). For the same compound, the MIC amounted to 0.003 µg/mL (≈ 0.00801 µM) with Staph. aureus UC-76, 0.05 µg/mL (≈ 0.134 µM) with Strep. faecalis MGH-2, 0.006 µg/mL (≈ 0.016 µM) with Strep. pneumoniae SV-1 [3] and 0.013 µg/mL (≈ 0.0347 µM) in the data set with Strep. pyogenes C-203 [4]. The ED50 with Esch. coli Vogel [6] (first line below the MICs) amounted to 5 mg/kg; in the data set with Esch. coli Vogel [6] (second line below the MICs), 1 mg/kg; in the data set on Pseud. aeruginosa UI-18 [7] (first line below the MICs) it was 50 mg/kg; with Pseud. aeruginosa UI-18 [7] (second line below the MICs), 22 mg/kg; with Strep. pneumoniae SV-1 [8] (first line below the MICs) it was 5 mg/kg; with Strep. pneumoniae SV-1 [8] (second line below the MICs) it was 2 mg/kg. Besides, the values for the ED50 in the data set with Strep. pyogenes C-203 [9] (first line below the MICs) and with Strep. pyogenes C-203 [9] (second line below the MICs) were 4 mg/kg and 1 mg/kg, respectively. The same compound registered an NOAEL in “in vivo” of 30 mg/kg. Besides, the CC50 at 3 h in [5] was 130 µg/mL (≈ 347 µM).
As to `CC(C)(N)[C@H]1CCN(c2nc3c(cc2F)c(=O)c(C(=O)O)cn3C2CC2)C1.Cl` [Example 3, (S)-7-[3-(1-Amino-1-methylethyl)-1-pyrrolidinyl]-1-cyclopropyl-6-fluoro-1,4-dihydro-4-oxo-1,8-naphthyridine-3-carboxylic acid, monohydrochloride], the MIC is 0.2 µg/mL with Ent. cloacae MA2646; 0.2 µg/mL with Esch. coli Vogel [1]; 0.4 µg/mL with Klebs. pneumoniae MGH-2; 0.8 µg/mL with Prot. rettgeri M 1771; 3.1 µg/mL in the data set on Pseud. aeruginosa UI-18 [2]; 0.1 µg/mL in the data set with Staph. aureus H 228. Also, the MIC stood at 0.025 µg/mL in the data set with Staph. aureus UC-76, 0.1 µg/mL with Strep. faecalis MGH-2, 0.05 µg/mL in the data set on Strep. pneumoniae SV-1 [3] and 0.1 µg/mL with Strep. pyogenes C-203 [4]. In addition, the ED50 stood at 10 mg/kg in the data set on Esch. coli Vogel [6] (first line below the MICs), 3 mg/kg with Esch. coli Vogel [6] (second line below the MICs), 32 mg/kg with Strep. pyogenes C-203 [9] (first line below the MICs) and 7 mg/kg in the data set with Strep. pyogenes C-203 [9] (second line below the MICs). In the data set “in vivo”, this compound gave an NOAEL of 30 mg/kg. In addition, the CC50 at 3 h in [5] turned out to be 58 µg/mL.

These data come from patent US5364861A, “Optical isomers of 7-[3-(1,1-dialkylmethyl-1-amino-1-pyrrolidinyl]-quinolones and naphthyridones as antibacterial agents” (Warner-Lambert Company, priority 1993, dated 1994).
